From PMC12596500, “Affinity-selected peptide ligands specifically bind i-motif DNA and modulate c-Myc gene expression” (Nucleic Acids Research, 2025)

Columns and labels:
[1] = target: short c-Myc iM-forming sequence; details: cited from earlier work
Description: To support the experiments on the stabilizing properties of the peptides, we also performed direct binding measurements of Pep-VSE and Pep-PTN using UV titrations. Binding curves are provided in Supplementary Fig. S11, and Kds are in Table 2. These experiments reveal tight binding of both PTN (0.93 ± 0.08 µM) and VSE (0.43 ± 0.03 µM) compared to other DNA structures. Although binding was detected for both peptides against c-MycG52, the G4-forming sequence in the complementary strand, there was no plateau at the concentrations examined. So, we have estimated a lower limit of 50 µM as the potent ...

c-MycC52 iM = experiment: Fluorescent indicator displacement (FID) assay with Thiazole Orange; type: binding; details: 1 µM c-MycC52, 2 µM TO, 10 mM sodium cacodylate pH 6.6, peptides 25-200 µM, n = 3
Description: Fluorescent indicator displacement (FID) experiments used in this publication are based on the first FID assay developed for iM DNA [35]. The FID experiments were performed on a BMG CLARIOstar plate reader using 96-well, solid black flat-bottom plates. Thiazole Orange (TO) was the indicator, and the stock solution was prepared at 10 mM in DMSO. The TO stock was diluted into the appropriate buffer to 2 µM. Each well received 9 µl of the 2 µM TO solution, was excited at 430 nm, and fluorescence emission at 450 nm was measured; this was normalized to 0% to account for background fluorescence. One microlitre of […] DNA was added to each well and shaken in the plate reader for 30 s using double orbital shaking at 700 rpm and left for 10 min to equilibrate. Following equilibration, fluorescence emission was measured and normalized to 100% representing maximum fluorescence. Peptides were titrated starting at 25 µM, with 0.9 µl additions into each well in triplicate, until a final concentration of 200 µM was reached, and fluorescence emission was measured after each addition. Fluorescence emission for each well was normalized between 0% and 100%, which was taken away from 100 to give the percentage of displacement. The data were analyzed in Origin data analysis software and fitted with a hyperbolic dose–response curve from which the DC50 value was interpolated.
The relative binding of the five peptide ligands to the folded c-MycC52 iM was assessed via a FID assay using TO (Fig. 1). These experiments were performed in 10 mM sodium cacodylate at pH 6.6, the transitional pH of the c-Myc iM-forming sequence. As iM-formation is reduced at higher pH and higher ionic strength, additional stabilizing cations were avoided to allow the highest proportion of iM formation at the highest pH, to represent as close to physiological pH conditions as possible.
Figure 1. Concentration-dependent interaction of peptides with c-MycC52 iM determined via FID assay. The assay was performed with 1 µM c-MycC52 in 10 mM sodium cacodylate, pH 6.6, in the presence of 2 µM TO. Peptide ligands were added in increments of 25 µM up to a final concentration of 200 µM. Data are presented as mean ± SD (n = 3) and fitted using a Hill-Slope dose–response curve.

dsDNA (DS) = experiment: CD melting of double-stranded DNA; type: binding; details: 10 µM DS, 10 mM NaCaco pH 6.6, 10 molar eqv. peptide vs buffer; n=2
Description: Circular Dichroism (CD) melting experiments were performed in a Jasco J-1500 spectropolarimeter with 10 µM DNA samples in 10 mM sodium cacodylate buffer at pH 6.6 using a 1 mm path length quartz cuvette. […] The samples were kept at 5°C for 5 min before starting the melt, with a temperature increase of 1°C/min, a 0.5°C data interval, and a 60-s holding time at each target temperature. Four scans were accumulated data pitch of 0.5 nm, a scanning speed of 200 nm/min, 1 s response time, 2 nm bandwidth, and 200 mdeg sensitivity. Furthermore, two CD melting experiment repeats were performed recording C-rich c-Myc at 288 and 320 nm, G-rich c-Myc at 264 and 320 nm, and dsDNA at 253 and 320 nm with the settings as described for full spectrum measurements. Data were zero corrected to 320 nm and baseline drift. The melting temperature (TM) was concluded using the Boltzmann or biphasic fitting curve on the folded fraction data using GraphPad Prism version 10.1.2. Data were processed as mean ± SEM (n = 4) and one-way ANOVA followed by Bonferroni post-hoc test to determine significant changes between peptides and controls.

Compound	Kd [1] [µM]	relative binding affinity ranking (TO displacement) (c-MycC52 iM)	destabilization of dsDNA (decrease in TM) (dsDNA (DS)) [°C]
NC[C@H]1O[C@H](O[C@H]2[C@H](O)[C@@H](O[C@H]3O[C@H](CO)[C@@H](O)[C@H](N)[C@H]3O)[C@H](N)C[C@@H]2N)[C@H](N)C[C@@H]1O [tobramycin]	13	–	–
EIEY TDHMK ELG [Pep-EIE, linear 12-mer peptide selected by phage display against c-MycC52; N-terminal acetylation, C-terminal amidation]	–	SLC > PTN > VSE > EIE > RVS	–
RVS TDHMK GRGG [Pep-RVS, linear 12-mer peptide selected by phage display against c-MycC52; N-terminal acetylation, C-terminal amidation]	–	SLC > PTN > VSE > EIE > RVS	–
SLCDIIRIEKVR [Pep-SLC, linear 12-mer peptide selected by phage display against c-MycC52; N-terminal acetylation, C-terminal amidation]	–	SLC > PTN > VSE > EIE > RVS	5
